Laboratory results as given in patent US20250213532A1, “5-METHOXY-N,N-[…][…] THE TREATMENT OF BIPOLAR DISORDER” (GH RESEARCH IRELAND LIMITED, priority 2022, published 2025).

How the values were obtained:
[1] = Pharmacokinetics after single inhaled dose (LC-MS/MS); format: in vivo, human
Method: Blood samples were obtained at 1; 2; 4; 7; 10; 15; 20; 30; 45 min and 1; 1.5; 2; 3; 4 hours after administration.
PK parameters were generated by algebraic analysis of the concentration versus time plots for each individual. The analysis was carried out using the software Phoenix WinNonlin 6.3.

[2] = system: Escherichia coli WP2 uvrA pKM101; assay: Bacterial mutation test, Escherichia coli; format: cell-based; details: up to 5000 pg/plate; absence and presence of rat liver S-9
Source text: These conditions included treatments at concentrations up to […] (the maximum recommended concentration according to current regulatory guidelines), in the absence and in the presence of a rat liver metabolic activation system (S-9).

[3] = system: patients with clinically diagnosed postpartum depression (PPD); assay: Clinical trial of inhaled 5-MeO-DMT in postpartum depression: BPRS; format: in vivo, human; details: one PPD patient; for BPRS Blunted affect improvement / BPRS Blunted affect score / BPRS Conceptual disorganization improvement / BPRS Conceptual disorganization score / BPRS Disorientation improvement / BPRS Disorientation score / BPRS Grandiosity improvement / BPRS Grandiosity score / BPRS Hallucinatory behaviour improvement / BPRS Hallucinatory behaviour score / BPRS Hostility improvement / BPRS Hostility score / BPRS Mannerisms and Posturing improvement / BPRS Mannerisms and Posturing score / BPRS Motor retardation improvement / BPRS Motor retardation score / BPRS Suspiciousness improvement / BPRS Suspiciousness score / BPRS Uncooperativeness improvement / BPRS Uncooperativeness score / BPRS Unusual Thought Content improvement / BPRS Unusual Thought Content score: baseline 1; for BPRS Excitement improvement / BPRS Excitement score: baseline 2; for BPRS Emotional withdrawal improvement / BPRS Emotional withdrawal score: baseline 5; for BPRS Anxiety improvement / BPRS Anxiety score: baseline 7
Source text: The patient completed all planned visit days.

[4] = Acute psychedelic effects after inhalation; set-up: species or system human; details: in vivo

COc1ccc2[nH]cc(CCN(C)C)c2c1 [5-MeO-DMT]
Pharmacokinetics under uptitration dosing schemes vs single dose ([1]; dosing schemes relying on uptitration): Substantially similar results | Accumulation upon repeated administration ([1]; repeated administration within a time frame of 1 to 4 hours): No accumulation | Induction of mutation [2]: did not induce mutation | BPRS Blunted affect improvement ([3]; Day 1): 0 | BPRS Blunted affect score ([3]; Day 1): 1 | BPRS Conceptual disorganization improvement ([3]; Day 1): 0 | BPRS Conceptual disorganization score ([3]; Day 1): 1 | BPRS Disorientation improvement ([3]; Day 1): 0 | BPRS Disorientation score ([3]; Day 1): 1 | BPRS Grandiosity improvement ([3]; Day 1): 0 | BPRS Grandiosity score ([3]; Day 1): 1 | BPRS Hallucinatory behaviour improvement ([3]; Day 1): 0 | BPRS Hallucinatory behaviour score ([3]; Day 1): 1 | BPRS Hostility improvement ([3]; Day 1): 0 | BPRS Hostility score ([3]; Day 1): 1 | BPRS Mannerisms and Posturing improvement ([3]; Day 1): 0 | BPRS Mannerisms and Posturing score ([3]; Day 1): 1 | BPRS Motor retardation improvement ([3]; Day 1): 0 | BPRS Motor retardation score ([3]; Day 1): 1 | BPRS Suspiciousness improvement ([3]; Day 1): 0 | BPRS Suspiciousness score ([3]; Day 1): 1 | BPRS Uncooperativeness improvement ([3]; Day 1): 0 | BPRS Uncooperativeness score ([3]; Day 1): 1 | BPRS Unusual Thought Content improvement ([3]; Day 1): 0 | BPRS Unusual Thought Content score ([3]; Day 1): 1 | BPRS Excitement improvement ([3]; Day 1): 1 | BPRS Excitement score ([3]; Day 1): 1 | BPRS Emotional withdrawal improvement ([3]; Day 1): 4 | BPRS Emotional withdrawal score ([3]; Day 1): 1 | BPRS Depressive Mood improvement ([3]; Day 1, baseline 6): 5 | BPRS Depressive Mood score ([3]; Day 1, baseline 6): 1 | BPRS Guilt feelings improvement ([3]; Day 1, baseline 6): 5 | BPRS Guilt feelings score ([3]; Day 1, baseline 6): 1 | BPRS Somatic Concern improvement ([3]; Day 1, baseline 6): 5 | BPRS Somatic Concern score ([3]; Day 1, baseline 6): 1 | BPRS Tension score ([3]; Day 1, baseline 6): 1 | BPRS Anxiety improvement ([3]; Day 1): 6 | BPRS Anxiety score ([3]; Day 1): 1 | BPRS Blunted affect improvement ([3]; Day 7): 0 | BPRS Blunted affect score ([3]; Day 7): 1 | BPRS Conceptual disorganization improvement ([3]; Day 7): 0 | BPRS Conceptual disorganization score ([3]; Day 7): 1 | BPRS Disorientation improvement ([3]; Day 7): 0 | BPRS Disorientation score ([3]; Day 7): 1 | BPRS Grandiosity improvement ([3]; Day 7): 0 | BPRS Grandiosity score ([3]; Day 7): 1 | BPRS Hallucinatory behaviour improvement ([3]; Day 7): 0 | BPRS Hallucinatory behaviour score ([3]; Day 7): 1 | BPRS Hostility improvement ([3]; Day 7): 0 | BPRS Hostility score ([3]; Day 7): 1 | BPRS Mannerisms and Posturing improvement ([3]; Day 7): 0 | BPRS Mannerisms and Posturing score ([3]; Day 7): 1 | BPRS Motor retardation improvement ([3]; Day 7): 0 | BPRS Motor retardation score ([3]; Day 7): 1 | BPRS Suspiciousness improvement ([3]; Day 7): 0 | BPRS Suspiciousness score ([3]; Day 7): 1 | BPRS Uncooperativeness improvement ([3]; Day 7): 0 | BPRS Uncooperativeness score ([3]; Day 7): 1 | BPRS Unusual Thought Content improvement ([3]; Day 7): 0 | BPRS Unusual Thought Content score ([3]; Day 7): 1 | BPRS Excitement improvement ([3]; Day 7): 1 | BPRS Excitement score ([3]; Day 7): 1 | BPRS Emotional withdrawal improvement ([3]; Day 7): 4 | BPRS Emotional withdrawal score ([3]; Day 7): 1 | BPRS Depressive Mood improvement ([3]; Day 7, baseline 6): 5 | BPRS Depressive Mood score ([3]; Day 7, baseline 6): 1 | BPRS Guilt feelings improvement ([3]; Day 7, baseline 6): 5 | BPRS Guilt feelings score ([3]; Day 7, baseline 6): 1 | BPRS Somatic Concern improvement ([3]; Day 7, baseline 6): 5 | BPRS Somatic Concern score ([3]; Day 7, baseline 6): 1 | BPRS Tension improvement ([3]; Day 7, baseline 6): 5 | BPRS Tension score ([3]; Day 7, baseline 6): 1 | BPRS Anxiety improvement ([3]; Day 7): 6 | BPRS Anxiety score ([3]; Day 7): 1 | BPRS Blunted affect improvement ([3]; Discharge): 0 | BPRS Blunted affect score ([3]; Discharge): 1 | BPRS Conceptual disorganization improvement ([3]; Discharge): 0 | BPRS Conceptual disorganization score ([3]; Discharge): 1 | BPRS Disorientation improvement ([3]; Discharge): 0 | BPRS Disorientation score ([3]; Discharge): 1 | BPRS Grandiosity improvement ([3]; Discharge): 0 | BPRS Grandiosity score ([3]; Discharge): 1 | BPRS Hallucinatory behaviour improvement ([3]; Discharge): 0 | BPRS Hallucinatory behaviour score ([3]; Discharge): 1 | BPRS Hostility improvement ([3]; Discharge): 0 | BPRS Hostility score ([3]; Discharge): 1 | BPRS Mannerisms and Posturing improvement ([3]; Discharge): 0 | BPRS Mannerisms and Posturing score ([3]; Discharge): 1 | BPRS Motor retardation improvement ([3]; Discharge): 0 | BPRS Motor retardation score ([3]; Discharge): 1 | BPRS Suspiciousness improvement ([3]; Discharge): 0 | BPRS Suspiciousness score ([3]; Discharge): 1 | BPRS Uncooperativeness improvement ([3]; Discharge): 0 | BPRS Uncooperativeness score ([3]; Discharge): 1 | BPRS Unusual Thought Content improvement ([3]; Discharge): 0 | BPRS Unusual Thought Content score ([3]; Discharge): 1 | BPRS Excitement improvement ([3]; Discharge): 1 | BPRS Excitement score ([3]; Discharge): 1 | BPRS Emotional withdrawal improvement ([3]; Discharge): 4 | BPRS Emotional withdrawal score ([3]; Discharge): 1 | BPRS Depressive Mood improvement ([3]; Discharge, baseline 6): 5 | BPRS Depressive Mood score ([3]; Discharge, baseline 6): 1 | BPRS Guilt feelings improvement ([3]; Discharge, baseline 6): 5 | BPRS Guilt feelings score ([3]; Discharge, baseline 6): 1 | BPRS Somatic Concern improvement ([3]; Discharge, baseline 6): 5 | BPRS Somatic Concern score ([3]; Discharge, baseline 6): 1 | BPRS Tension score ([3]; Discharge, baseline 6): 1 | BPRS Anxiety improvement ([3]; Discharge): 6 | BPRS Anxiety score ([3]; Discharge): 1 | Onset of effect [4]: merely seconds
